Consider 33 compounds from US9907776B2 (priority 2013, dated 2018).

In general, ED50 refers to the dose that gives a 50% effect, or the effect in half of the subjects.

The subject of test [1] is corneally kindled seizures. Kind of test: animal or person. Particulars: Rattus norvegicus, po. Format: in vivo, Sprague-Dawley rats.
Test [2] concerns PTZ (Pentylenetetrazol) induced clonic seizure. Kind of test: animal or person. Conditions: for PTZ test (ip) Protection % (Rats): rat, in vivo. Format: in vivo, Rats; SD.
Test [3] shares this test system. Further details: species or system Mouse; ICR. Particulars: mouse, in vivo.
Test [4] relates to hippocampal kindled seizures. Kind of test: animal or person. Format: in vivo, Sprague-Dawley rats. Particulars: Rattus norvegicus, ip, read-out: HK (ip) ED50.
Setting [5] is: read-out: CK(po) Protection % (Rats).

For `C[C@H](OC(N)=O)[C@@H](O)c1c(Cl)cccc1Cl` [Example 37, 1-(2,6-dichlorophenyl)-(S)-1-hydroxypropyl-(S)-2-carbamate], in test [1] (setting [5]), the responders at 10 mg/kg was 33.3%. Further, in test [2], the “PTZ test (ip) Protection % (Rats)” value was “^b30 (50%)^”.
On to `CCCCC(OC(N)=O)C(O)c1ccccc1Cl` (racemic) [Example 14, 1-(2-chlorophenyl)-1-hydroxyhexyl-2-carbamate], for which the “PTZ test (ip) Protection % (Mice)” value in test [3] is given as “^a20.4 (16.7%)”.
With `CNC(=O)OC(C)C(O)c1ccccc1Cl` (racemic) [Example 29, 1-(2-chlorophenyl)-1-hydroxypropyl-2-N-methylcarbamate], in test [3], the “PTZ test (ip) Protection % (Mice)” value is listed as “^a20.4 (33.3%)”.
On to `C[C@H](OC(N)=O)[C@@H](O)c1ccccc1I` [Example 65, 1-(2-iodophenyl)-(S)-1-hydroxypropyl-(S)-2-carbamate], for which, in test [1] (setting [5]), the responders at 2.8 mg/kg was found to be 33.3%. Besides, the “PTZ test (ip) Protection % (Mice)” value in test [3] was “^a20.4 (100%)”.
Consider `CC[C@H](OC(N)=O)[C@@H](O)c1ccc(Cl)cc1Cl` [Example 39, 1-(2,4-dichlorophenyl)-(S)-1-hydroxybutyl-(S)-2-carbamate], for which, in test [1] (setting [5]), the responders at 25 mg/kg amounted to 100%.
`C[C@@H](OC(N)=O)[C@H](O)c1ccc(Cl)cc1Cl` [Example 45, 1-(2,4-dichlorophenyl)-(R)-1-hydroxypropyl-(R)-2-carbamate]: in test [3], the “PTZ test (ip) Protection % (Mice)” value was “^a20.4 (16.7%)”. For the same compound, in test [2], the “PTZ test (ip) Protection % (Rats)” value is “^b50 (16.7%)”.
With `C[C@@H](OC(N)=O)[C@H](O)c1ccccc1Cl` [Example 2, 1-(2-chlorophenyl)-(R)-1-hydroxypropyl-(R)-2-carbamate], the responders at 20 mg/kg in test [1] (setting [5]) stood at 16.7%.
Turning to `CC(OC(=O)NC1CC1)C(O)c1ccccc1Cl` (racemic) [Example 32, 1-(2-chlorophenyl)-1-hydroxypropyl-2-N-cyclopropylcarbamate], the “PTZ test (ip) Protection % (Mice)” value in test [3] is “^a20.4 (16.7%)”.
In the case of `C[C@@H](OC(N)=O)[C@H](O)c1c(Cl)cccc1Cl` [Example 46, 1-(2,6-dichlorophenyl)-(R)-1-hydroxypropyl-(R)-2-carbamate], in test [1] (setting [5]), the responders at 20 mg/kg worked out at 50%. In addition, the “PTZ test (ip) Protection % (Mice)” value in test [3] was “^a20.4 (50%)^”.
For the compound `CC(C)NC(=O)OC(C)C(O)c1ccccc1Cl` (racemic) [Example 31, 1-(2-chlorophenyl)-1-hydroxypropyl-2-N-isopropylcarbamate], the “PTZ test (ip) Protection % (Mice)” value in test [3] is on record as “^a20.4 (83.3%)”.
Regarding `CC[C@H](OC(N)=O)[C@@H](O)c1c(Cl)cccc1Cl` [Example 40, 1-(2,6-dichlorophenyl)-(S)-1-hydroxybutyl-(S)-2-carbamate], in test [3], the “PTZ test (ip) Protection % (Mice)” value is on record as “^a20.4 (33.3%)”.
For the compound `C[C@@H](OC(N)=O)[C@@H](O)c1ccccc1Cl` [Example 4, 1-(2-chlorophenyl)-(S)-1-hydroxypropyl-(R)-2-carbamate], in test [1] (setting [5]), the responders at 30 mg/kg is 100%.
Turning to `CC[C@H](OC(N)=O)[C@@H](O)c1ccccc1I` [Example 67, 1-(2-iodophenyl)-(S)-1-hydroxybutyl-(S)-2-carbamate], in test [1] (setting [5]), the responders at 30 mg/kg came out at 100%. Also, in test [2], the “PTZ test (ip) Protection % (Rats)” value is given as “^b30 (33.3%)”.
For the compound `C[C@H](OC(=O)NC1CC1)[C@@H](O)c1ccccc1Cl` [Example 18, 1-(2-chlorophenyl)-(S)-1-hydroxypropyl-(R)-2-N-cyclopropylcarbamate], the “PTZ test (ip) Protection % (Rats)” value in test [2] is “^b30 (16.7%)”.
In the case of `CCCC[C@@H](OC(N)=O)[C@H](O)c1ccccc1Cl` [Example 13, 1-(2-chlorophenyl)-(R)-1-hydroxyhexyl-(R)-2-carbamate], in test [3], the “PTZ test (ip) Protection % (Mice)” value was “^a20.4 (50%)^”.
As for `C[C@H](OC(N)=O)[C@@H](O)c1ccc(Cl)cc1Cl` [Example 36, 1-(2,4-dichlorophenyl)-(S)-1-hydroxypropyl-(S)-2-carbamate], the responders at 30 mg/kg in test [1] (setting [5]) amounted to 50%. Further, the “PTZ test (ip) Protection % (Mice)” value in test [3] is listed as “^a20.4 (33.3%)”.
Turning to `C[C@H](OC(N)=O)[C@@H](O)c1cccc(Cl)c1Cl` [Example 38, 1-(2,3-dichlorophenyl)-(S)-1-hydroxypropyl-(S)-2-carbamate], in test [1] (setting [5]), the responders at 30 mg/kg stood at 50%. The “PTZ test (ip) Protection % (Mice)” value in test [3] is on record as “^a20.4 (50%)^”.
For `CC[C@H](OC(N)=O)[C@@H](O)c1ccccc1Cl` [Example 6, 1-(2-chlorophenyl)-(S)-1-hydroxybutyl-(S)-2-carbamate], the responders at 10 mg/kg in test [1] (setting [5]) is 33.3%. In test [2], the “PTZ test (ip) Protection % (Rats)” value is given as “^b30 (50%)^”.
As to `C[C@H](OC(N)=O)[C@@H](O)c1ccccc1F` [Example 63, 1-(2-fluorophenyl)-(S)-1-hydroxypropyl-(S)-2-carbamate], the responders at 20 mg/kg in test [1] (setting [5]) turned out to be 100%. The “PTZ test (ip) Protection % (Mice)” value in test [3] is recorded as “^a20.4 (50%)^”.
Consider `C[C@H](OC(N)=O)[C@H](O)c1ccccc1Cl` [Example 5, 1-(2-chlorophenyl)-(R)-1-hydroxypropyl-(S)-2-carbamate], for which the responders at 30 mg/kg in test [1] (setting [5]) stood at 50%.
Regarding `CCCC[C@H](OC(N)=O)[C@@H](O)c1c(Cl)cccc1Cl` [Example 44, 1-(2,6-dichlorophenyl)-(S)-1-hydroxyhexyl-(S)-2-carbamate], the “PTZ test (ip) Protection % (Mice)” value in test [3] is listed as “^a20.4 (33.3%)”.
Regarding `CCCNC(=O)OC(C)C(O)c1ccccc1Cl` (racemic) [Example 30, 1-(2-chlorophenyl)-1-hydroxypropyl-2-N-propylcarbamate], the “PTZ test (ip) Protection % (Mice)” value in test [3] was “^a20.4 (33.3%)”.
As for `CNC(=O)O[C@@H](C)[C@@H](O)c1ccccc1Cl` [Example 15, 1-(2-chlorophenyl)-(S)-1-hydroxypropyl-(S)-2-N-methylcarbamate], the “PTZ test (ip) Protection % (Rats)” value in test [2] was “^b25 (33.3%)”.
In the case of `CCCC[C@H](OC(N)=O)[C@@H](O)c1ccccc1Cl` [Example 12, 1-(2-chlorophenyl)-(S)-1-hydroxyhexyl-(S)-2-carbamate], the “PTZ test (ip) Protection % (Mice)” value in test [3] is “^a20.4 (33.3%)”.
Turning to `C[C@@H](OC(=O)NC1CC1)[C@H](O)c1ccccc1Cl` [Example 25, 1-(2-chlorophenyl)-(R)-1-hydroxypropyl-(R)-2-N-cyclopropylcarbamate], the “PTZ test (ip) Protection % (Mice)” value in test [3] was “^a20.4 (66.7%)”.
Take `C[C@H](OC(N)=O)[C@@H](O)c1ccccc1Cl` [Example 1, 1-(2-chlorophenyl)-(S)-1-hydroxypropyl-(S)-2-carbamate]: the values for the ED50 in test [1] (read-out: CK(po) ED50) and in test [4] were 2.8 mg/kg and 17.6 mg/kg, respectively.
Consider `CC(OC(N)=O)C(O)c1ccccc1Cl` (racemic) [Example 3, 1-(2-chlorophenyl)-1-hydroxypropyl-2-carbamate], for which, in test [1] (setting [5]), the responders at 10 mg/kg was 50%. In addition, in test [2] (Rattus norvegicus, ip, read-out: PTZ test (ip) Rats ED50), the median effective dose (ED50) stood at 81.9 mg/kg.
As for `CC(C)[C@H](OC(N)=O)[C@@H](O)c1ccccc1Cl` [Example 9, 1-(2-chlorophenyl)-(S)-1-hydroxy-3-methyl-butyl-(S)-2-carbamate], in test [1] (setting [5]), the responders at 30 mg/kg turned out to be 16.7%. For the same compound, the “PTZ test (ip) Protection % (Mice)” value in test [3] was “^a20.4 (33.3%)”.
In the case of `CCCNC(=O)O[C@@H](C)[C@@H](O)c1ccccc1Cl` [Example 16, 1-(2-chlorophenyl)-(S)-1-hydroxypropyl-(S)-2-N-propylcarbamate], in test [2], the “PTZ test (ip) Protection % (Rats)” value is on record as “^b30 (33.3%)”.
For `CC(C)[C@H](OC(N)=O)[C@@H](O)c1c(Cl)cccc1Cl` [Example 42, 1-(2,6-dichlorophenyl)-(S)-1-hydroxy-3-methyl-butyl-(S)-2-carbamate], the “PTZ test (ip) Protection % (Mice)” value in test [3] is on record as “^a20.4 (50%)^”.
On to `CCC(OC(N)=O)C(O)c1ccccc1Cl` (racemic) [Example 8, 1-(2-chlorophenyl)-1-hydroxybutyl-2-carbamate], for which the “PTZ test (ip) Protection % (Mice)” value in test [3] is given as “^a20.4 (50%)^”.
The same measure, in the same setting: the same measure for `CCCNC(=O)O[C@H](C)[C@H](O)c1ccccc1Cl` [Example 23, 1-(2-chlorophenyl)-(R)-1-hydroxypropyl-(R)-2-N-propylcarbamate]: “^a20.4 (50%)^”.
`CCCC[C@H](OC(N)=O)[C@@H](O)c1ccc(Cl)cc1Cl` [Example 43, 1-(2,4-dichlorophenyl)-(S)-1-hydroxyhexyl-(S)-2-carbamate]: the “PTZ test (ip) Protection % (Rats)” value in test [2] is listed as “^b25 (33.3%)”.
